We go through one compound from patent publication EP0233441A1, “New enzyme inhibitor” (Astra Läkemedel Aktiebolag, priority 1985, dated 1987).

One assay addresses T1, CMP-KDO synthetase (CKS) (Escherichia coli, UniProt P04951).
T1 construct: made in house
Nature of the assay: CKS Assay (enzyme inhibition). Type of assay: biochemical. Conditions: percent of a control without inhibitor, read-out: Percentage of inhibition of CKS. The procedure: (§1) Potential inhibitors were tested for inhibitory action against two key enzymes involved in the biosynthesis of bacterial LPS.
I. CMP-KDO synthetase (CKS) which catalyses the reaction [drawing 20]
The CKS enzyme was prepared essentially as described by Osborne [J-.Biol.Chem. […]] and the enzyme assayed by the method of Ghalambor and Heath (J.Biol.Chem. 241 (1966) 3216-3221).
(§2) Inhibition of CKS and KLT enzymes by compound I is given in Table I. The inhibitory action is expressed in percent of a control without inhibitor run simultaneously.

The target of assay [1] is CMP-KDO lipid A transferase (KLT) (Salmonella typhimurium, UniProt Q8ZL49). Nature of the assay: KLT Assay (incorporation of [14-C]-labelled CMP-KDO into acid-insoluble product; CMP-KDO generated in situ by added CKS). Type of assay: biochemical. Conditions: percent of a control without inhibitor, read-out: Percentage of inhibition of KLT. How it is done:
as §1
CMP-KDO lipid A transferase (KLT) which transfers CMP-KDO to an intermediate in the biosynthesis of LPS known as lipid A precursor [drawing 21]
The KLT enzyme was purified essentially by the method of Osborne (J.Biol.Chem. 252 (1977) 4895-4903). KLT activity was determined by monitoring the incorporation of [14-C]-labelled CMP-KDO into acid- insoluble product. The radio labelled CMP-KDO was generated in situ from CTP and [14-C]-KDO by the action of added CKS enzyme. The incubation mixture contained CKS enzyme, KLT enzyme, 110 mM Tris buffer pH 8.0, 10.6 mM NaCl, 0.5 mM CTP, 0.4%, Alfonic 1012-6 (Trade name), 0.16 mM [14-c] KDO and lipid A precursor. The final reaction volume was 150 µl. The mixture was incubated at 25°C for 15 min., when 50 µl was transferred to a filter paper circle (Munktell No. 5,24 mm.) and then washed copiously with 10% TCA. The radioactivity adsorbed on the paper circle, which represents radiolabelled KDO bound to precursor was determined using liquid scintillation counting.
as §2

CMP-KDO lipid A transferase (KLT), sequence (Q8ZL49 entry or part of it): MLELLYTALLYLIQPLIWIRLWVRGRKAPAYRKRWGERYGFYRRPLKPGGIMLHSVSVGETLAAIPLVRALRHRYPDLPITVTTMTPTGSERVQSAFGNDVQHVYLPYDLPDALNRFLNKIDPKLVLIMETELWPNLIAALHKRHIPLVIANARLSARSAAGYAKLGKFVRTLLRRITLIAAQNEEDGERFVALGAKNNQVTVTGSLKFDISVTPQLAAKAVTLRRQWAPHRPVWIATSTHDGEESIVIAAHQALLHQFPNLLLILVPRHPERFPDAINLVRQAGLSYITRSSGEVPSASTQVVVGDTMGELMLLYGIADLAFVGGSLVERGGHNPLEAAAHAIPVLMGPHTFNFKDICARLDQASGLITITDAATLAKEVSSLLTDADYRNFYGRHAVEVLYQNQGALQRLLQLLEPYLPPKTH
T1 sequence (P04951 whole entry): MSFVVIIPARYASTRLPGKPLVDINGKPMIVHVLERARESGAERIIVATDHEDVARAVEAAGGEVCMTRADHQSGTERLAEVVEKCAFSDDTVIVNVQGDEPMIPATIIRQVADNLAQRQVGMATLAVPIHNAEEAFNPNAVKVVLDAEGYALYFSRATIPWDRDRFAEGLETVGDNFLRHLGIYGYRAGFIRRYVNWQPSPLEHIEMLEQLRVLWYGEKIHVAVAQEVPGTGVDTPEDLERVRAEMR

Consider `O=C(O)[C@@H]1C[C@@H](O)[C@@H](O)[C@@H]([C@H](O)CO)O1` [compound I, ammonium 2,6-anhydro-3-deoxy-D- -glycero-D -talo-octonate], for which the values for the inhibition at 2.5 µM (at CMP-KDO synthetase (CKS) (0.0025 mM compound); in assay [1] (0.0025 mM compound)) were 8% and 24%, respectively. For the same compound, the inhibition at 10 µM at CMP-KDO synthetase (CKS) (0.01 mM compound) came out at 36%; in assay [1] (0.01 mM compound), 57%. Moreover, the inhibition at 40 µM on CMP-KDO synthetase (CKS) (0.04 mM compound) stood at 68%; in assay [1] (0.04 mM compound), 81%. Moreover, the inhibition at 160 µM at CMP-KDO synthetase (CKS) (0.16 mM compound) was 90%; in assay [1] (0.16 mM compound) it was 89%. The inhibition at 640 µM (on CMP-KDO synthetase (CKS) (0.64 mM compound); in assay [1] (0.64 mM compound)) was 98% throughout. For the same compound, the inhibition at 2540 µM on CMP-KDO synthetase (CKS) (2.54 mM compound) was 99%. The inhibition at 10160 µM on CMP-KDO synthetase (CKS) (10.16 mM compound) was 98%. Besides, the inhibition at 0.625 µM in assay [1] (0.000625 mM compound) stood at 5%.
